Key:
[1] = Distribution coefficient estimation using chromatography, gLogD (Monash); format: physicochemical; conditions: gradient HPLC retention against standard compounds, pH 7.4
Description: Partition coefficient values (LogD) of the test compounds were estimated at pH 7.4 by the correlation of their chromatographic retention properties against the characteristics of a series of standard compounds with known partition coefficient values. The method employed is a gradient HPLC-based derivation of the method developed by Lombardo.[42] […]
c) Distribution Coefficient Estimation using Chromatography (gLogDpH)
Partition coefficient values (LogD) of the test compounds were estimated at pH 7.4 by correlation of their
chromatographic retention properties against the characteristics of a series of standard compounds with known
partition coefficient values. […]
In Vitro Intrinsic Clearance […]
Experimental results are tabulated on the following page(s).
(1 picture or pasted object on this page, not shown here)

[2] = Mouse liver microsome (MLM) metabolic stability (UNC); format: in vitro ADME
Description: Supplement id3c00286_si_002.xlsx, sheet "Series 2 Data" | column: MLM Clint (mL/min/kg) (UNC); MLM t1/2 (min) (UNC); MLM E (UNC)

LogD7.4 (Chrom Log D) = format: physicochemical; conditions: chromatographic system (Chrom Log D); pH 7.4, NEU; read-out: LogD 7.4 (NEU)

Structure (SMILES) | chromatographic logD [1] | MLM E (UNC) ([2]; mouse liver microsomes) | CLint scaled ([2]; mouse, liver microsomes) [mL/min/kg] | half-life ([2]; mouse, liver microsomes, read-out: MLM t1/2 (UNC)) [min] | chromatographic logD (LogD7.4 (Chrom Log D))
c1ccc(-c2nc3n(c2-c2ccc4sccc4c2)CCC3)nc1 [OSA_000822] | 2.3 | 0.929 | 1170 | 4.8 | 
c1ccc(-c2nc3n(c2-c2ccc4occc4c2)CCC3)nc1 [compound 821] |  |  |  |  | 2.7

From article PMC10714399, “Open Source Antibiotics: Simple Diarylimidazoles Are Potent against Methicillin-Resistant Staphylococcus aureus” (ACS Infectious Diseases, 2023)
